# Experimental data: ChEMBL document CHEMBL4145615, “Indolyl Azaspiroketal Mannich Bases Are Potent Antimycobacterial Agents with Selective Membrane Permeabilizing Effects and in Vivo Activity” (J Med Chem, 2018)
# Tested on: Mycobacterium tuberculosis variant bovis BCG
# Experiment: Antimycobacterial activity against Mycobacterium bovis BCG ATCC 35734 after 5 days by broth dilution method
# Assay type: functional
# Details: ATCC 35734, 120 h
smiles,measurement,value
COc1ccc2c(CN3CCC4(CC3)OCCO4)cn(CCCc3ccccc3)c2c1,MIC50,6 µM
same,MIC90,18 µM
COc1ccc2c(CN3CCCCC3)cn(CCCCOc3ccccc3)c2c1,MIC50,16 µM
same,MIC90,41 µM
CCCCCCCCn1cc(CNC2CCC3(CC2)OCCO3)c2ccc(OC)cc21,MIC50,3.6 µM
same,MIC90,6.3 µM
CCCCCCCCn1ccc2cccc(OCCCN3CCCCCC3)c21,MIC50,5 µM
same,MIC90,11 µM
CCCCCCCCn1ccc2cc(OCCCN3CCCC3)ccc21,MIC50,31 µM
same,MIC90,48 µM
CCCCCCCCn1cc(CN2CCC3(CCO3)CC2)c2ccc(OC)cc21,MIC50,2 µM
same,MIC90,4 µM
COc1ccc2c(CN3CCCCC3)cn(CCCOc3ccccc3)c2c1,MIC50,30 µM
same,MIC90,50 µM
CCCCCCCCn1cc(CN2CCCC3(CC2)OCCS3)c2ccc(OC)cc21 (stereo unspecified),MIC50,0.7 µM
same,MIC90,1.2 µM
CCCCCCCCn1cc(CN2[C@H]3CCC[C@@H]2CCC3)c2ccc(OC)cc21,MIC50,3.8 µM
same,MIC90,7.6 µM
COc1ccc2c(CN3CCC4(CC3)OCCCO4)cn(C/C=C/c3ccccc3)c2c1,MIC50,4.8 µM
same,MIC90,9 µM
CCCCCCCCn1ccc2cc(OCCN3CCCCCC3)ccc21,MIC50,2 µM
same,MIC90,6 µM
CCCCCCCCn1ccc2cc(OCCCN3CCCCC3)ccc21,MIC50,13 µM
same,MIC90,40 µM
CCCCCCCCn1cc(CN2CCC3(CC2)OC(C)C(C)O3)c2ccc(OC)cc21 (stereo unspecified),MIC50,0.7 µM
same,MIC90,1.6 µM
COc1ccc2c(CN3CCC4(CC3)OCCO4)cn(CCCOc3ccc(C)cc3)c2c1,MIC50,4.8 µM
same,MIC90,11 µM
CCCCCCCCn1cc(CN2CCC3(CC2)OCCO3)c2ccc(OCCC)cc21,MIC50,3 µM
same,MIC90,5 µM
CCCCCCCCn1cc(CN2CCCCC2)c2ccc(OC)cc21,MIC50,7 µM
same,MIC90,13 µM
COc1ccc2c(CN3CCCCC3)cn(CCCOCc3ccccc3)c2c1,MIC50,46 µM
same,MIC90,> 50 µM
COc1ccc2c(CN3CCCCC3)cn(C/C=C/c3ccccc3)c2c1,MIC50,31 µM
same,MIC90,49 µM
COc1ccc2c(CN3CCCCC3)cn(CCCc3ccccc3)c2c1,MIC50,36 µM
same,MIC90,> 50 µM
CCCCCCCCn1ccc2cc(OCCCN3CCCCCC3)ccc21,MIC50,1.9 µM
same,MIC90,8 µM
COc1ccc2c(CN3CCC4(CC3)OCCCO4)cn(CCCCc3ccccc3)c2c1,MIC50,1.6 µM
same,MIC90,3.1 µM
CCCCCCCCn1cc(CN2CCC3(CC2)OCCO3)c2ccc([N+](=O)[O-])cc21,MIC50,0.8 µM
same,MIC90,1.6 µM
COc1ccc2c(CN3CCC4(CC3)OCCCO4)cn(CCCCOc3ccccc3)c2c1,MIC50,11 µM
same,MIC90,25 µM
COc1ccc2c(CN3CCC4(CC3)OCCO4)cn(CCCCOc3ccccc3)c2c1,MIC50,20 µM
same,MIC90,41 µM
CCCCCCCCn1cc(CN2CCC3(C2)CC3(F)F)c2ccc(OC)cc21 (stereo unspecified),MIC50,13 µM
same,MIC90,18 µM
CCCCCCCCn1cc(CN2CCCCC2)c2ccc(OC(C)C)cc21,MIC50,4 µM
same,MIC90,6 µM
COc1ccc2c(CN3CCC4(CC3)OCCCO4)cn(CCCOc3ccccc3)c2c1,MIC50,1.3 µM
same,MIC90,3.1 µM
CCCCCCCCn1cc(CN2CCC3(CC2)OCCO3)c2ccc(OCc3ccccc3)cc21,MIC50,4 µM
same,MIC90,5.5 µM
CCCCCCCCn1cc(CN2CCOC3(CCCO3)C2)c2ccc(OC)cc21 (stereo unspecified),MIC50,15 µM
same,MIC90,46 µM
CCCCCCCCn1ccc2ccc(OCCCN3CCC4(CC3)OCCCO4)cc21,MIC50,5.6 µM
same,MIC90,28 µM
CCCCCCCCn1ccc2ccc(OCCCN3CCCCC3)cc21,MIC50,13 µM
same,MIC90,25 µM
COc1ccc2c(CN3CCC4(CC3)OCCCO4)cn(CCCc3ccccc3)c2c1,MIC50,2.6 µM
same,MIC90,9.8 µM
COc1ccc(CCCn2cc(CN3CCC4(CC3)OCCCO4)c3ccc(OC)cc32)cc1,MIC50,4.1 µM
same,MIC90,9.3 µM
COc1ccc2c(CN3CCC4(CC3)OCCO4)cn(C/C=C/c3ccccc3)c2c1,MIC50,15 µM
same,MIC90,31 µM
CCCCCCCCn1cc(CN2CCC3(CC2)OC[C@@H](C)O3)c2ccc(OC)cc21,MIC50,0.6 µM
same,MIC90,0.8 µM
COc1ccc2c(CN3CCCCC3)cn(CCCOc3ccc(C)c(C)c3)c2c1,MIC50,18 µM
same,MIC90,25 µM
COc1ccc(CCCn2cc(CN3CCCCC3)c3ccc(OC)cc32)cc1,MIC50,18 µM
same,MIC90,39 µM
CCCCCCCCn1ccc2ccc(OCCCN3CCCCCC3)cc21,MIC50,3.9 µM
same,MIC90,12 µM
COc1ccc2c(CN3CCC4(CC3)OCCCO4)cn(CCCOc3ccc(C)c(C)c3)c2c1,MIC50,1.7 µM
same,MIC90,2.7 µM
COc1ccc2c(CN3CCCCC3)cn(CCCOc3ccc(C)cc3)c2c1,MIC50,19 µM
same,MIC90,41 µM
CCCCCCCCn1ccc2c(OCCCN3CCCCCC3)cccc21,MIC50,9.5 µM
same,MIC90,22 µM
CCCCCCCCn1cc(CN2CCC3(CCN(Cc4ccccc4)CC3)CC2)c2ccc(OC)cc21,MIC50,2.3 µM
same,MIC90,4.4 µM
COc1ccc(OCCCn2cc(CN3CCC4(CC3)OCCO4)c3ccc(OC)cc32)cc1,MIC50,6 µM
same,MIC90,13 µM
